Results from patent US9624161B2 (priority 2009, dated 2017).
Entries after “also recorded” stand apart in the source; their conditions may differ.

Assays:
rat ER-β = target: T1, rat ER-β (Rattus norvegicus, UniProt Q62986); assay: Transactivation assay (agonist and antagonist modes), HEK-293 cells, ERE-LUC; assay type: cell-based
T1 construct: expressed in transfected cells; host or cells: HEK-293

[1] = test system: estrogen related receptor (ERR-α, ERR-β and ERR-γ); assay: Estrogen related receptor transactivation, DES versus Compound IV; assay type: cell-based; settings: FIG. 12C
male Sprague-Dawley rats = assay: Recovery of testosterone levels after 3-day oral dosing in rats; assay type: in vivo, rat; settings: 1 mg/kg oral for three days; no recovery
Text: Thirty-five (35) male Sprague-Dawley rats weighing approximately 200 g were maintained on a 12-h light/dark cycle with food (2016 Teklad Global 16% Protein Rodent Diet, Harlan, Madison, Wis.) and water available ad libitum. The animal protocol was reviewed and approved by the Institutional Animal Care and Use Committee of the University of Tennessee.
The test article for this study was weighed and dissolved in PEG 300 (100%) (Acros Organics, NJ) to prepare the appropriate dose formulations. Animals were randomly assigned to one of the […] treatment groups (n=5 animals/group). The animals were housed in groups of 2 to 3 animals per cage. Group 1 was sacrificed at the initiation of the study (Day 1) for determination of baseline testosterone levels in intact animals. Groups 2-7 received daily doses of 1, 3, or 30 mg/kg via oral gavage (˜200 uL) for three days. Groups 2, 3, and 4 were sacrificed on Day 4 to measure maximal testosterone suppression. Groups 5, 6, and 7 were allowed to recover for 14 days with a drug free washout period.

[2] = test system: treatment naïve male Cynomolgus monkeys; assay: Suppression and recovery of androgen levels in intact male monkeys, 30 mg/kg oral for 7 days; assay type: in vivo, Cynomolgus monkey; set-up: Circulating androgen level (mean±SEM) / Circulating androgen level after recovery: unit not given here
Method: The effect of Compound IV on suppression and recovery of testosterone levels in intact male monkeys was evaluated in conjunction with an oral pharmacokinetic study. Three treatment naïve male Cynomolgus monkeys (2 to 3 years old) were administered Compound IV at 30 mg/kg daily by oral gavage for 7 consecutive days. Blood samples were collected and divided into serum and plasma for testosterone and Compound IV quantitative measurements, respectively.

healthy human subjects = assay: Single and multiple dose studies in healthy human subjects; assay type: in vivo; settings: for Subjects with decreased total testosterone levels: multiple doses
Method: There were observations of elevated ALT levels above the upper limit of normal in four subjects in the multiple dose study (3 subjects in the 1000 mg group and 1 subject in the 600 mg group). The highest single observed value of ALT was 129 IU/L or 2.6 times the upper limit of normal. Aspartate aminotransferase levels were also elevated in this subject to 1.9 times the upper limit of normal.
Serum total testosterone levels were assessed throughout the multiple doses study. Total testosterone levels were decreased in 100% (10/10) of the subjects in the 600 mg dose group and 90% (9/10) of the subjects in the […] dose group. The levels of total testosterone were decreased to below the lower limit of normal in 40% (4/10) of the subjects in the 600 mg dose group and 50% (5/10) of the subjects in the 1000 mg dose group.

[3] = test system: healthy young male volunteers; assay: Study 1: 56 day proof of concept study in healthy young male volunteers (600, 1000, 1500 mg); assay type: in vivo, human; settings: for BSAP change / FSH change / Free testosterone change / Osteocalcin change / SHBG change / Total testosterone change / serum PSA change: castrated subjects
Method: A 56 day, proof of concept study of Compound IV was conducted in healthy young male volunteers. (Table 22 and Table 23 below). […] The free testosterone levels were reduced to levels below the levels expected from surgical castration or those expected from chemical castration with LHRH agonists or antagonists. This is due to a dose dependent increase in sex hormone binding globulin (SHBG) that is observed with Compound IV.

[4] = 600 mg, sufficiently compliant subjects
[5] = 1000 mg, sufficiently compliant subjects
[6] = 1500 mg, sufficiently compliant subjects

T1 sequence (Q62986 whole entry): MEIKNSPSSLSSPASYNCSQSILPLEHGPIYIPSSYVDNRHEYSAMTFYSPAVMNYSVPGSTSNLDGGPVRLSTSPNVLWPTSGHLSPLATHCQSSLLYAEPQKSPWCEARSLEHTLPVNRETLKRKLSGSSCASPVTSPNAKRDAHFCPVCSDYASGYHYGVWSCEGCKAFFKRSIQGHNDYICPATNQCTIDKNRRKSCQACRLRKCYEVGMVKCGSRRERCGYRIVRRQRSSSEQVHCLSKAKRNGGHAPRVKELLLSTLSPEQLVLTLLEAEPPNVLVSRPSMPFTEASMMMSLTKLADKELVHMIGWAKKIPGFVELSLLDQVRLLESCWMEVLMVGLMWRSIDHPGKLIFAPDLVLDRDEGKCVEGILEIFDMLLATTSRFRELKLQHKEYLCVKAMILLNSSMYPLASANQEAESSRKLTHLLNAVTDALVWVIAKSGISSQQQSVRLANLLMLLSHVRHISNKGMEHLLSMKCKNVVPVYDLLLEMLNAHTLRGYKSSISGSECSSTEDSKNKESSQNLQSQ

O=C(c1ccc(O)c(F)c1)N(c1ccc(O)cc1)c1ccc(F)cc1 [Compound IV, 3-fluoro-N-(4-fluorophenyl)-4-hydroxy-N-(4-hydroxyphenyl)benzamide]
Fold less potency to stimulate ERβ-mediated transcription compared to estradiol (rat ER-β): ~1400 fold | Effect on estrogen related receptor (ERR) transactivation [1]: does not; also recorded: failed to crossreact | Serum testosterone after dosing (male Sprague-Dawley rats): No significant suppression | Circulating androgen level after recovery ([2]; 30 mg/kg daily oral 7 days, then 18-day drug-free recovery): 1757.7±369.5 | Decrease of circulating androgen levels compared to baseline ([2]; 30 mg/kg daily oral, 7 days, three monkeys): up to 47% | Circulating androgen level (mean±SEM) ([2]; 30 mg/kg daily oral, Day 2): 997±104 | Circulating androgen level (mean±SEM) ([2]; 30 mg/kg daily oral, Day 6): 852±136 | Subjects with total testosterone below the lower limit of normal (healthy human subjects; 600 mg dose group): 40% | Subjects with decreased total testosterone levels (healthy human subjects; 600 mg dose group): 100% | Subjects with decreased total testosterone levels (healthy human subjects; 997 mg dose group): 90% | Subjects with total testosterone below the lower limit of normal (healthy human subjects; 1000 mg dose group): 50% | Time for total testosterone to return to normal after discontinuation (healthy human subjects; all subjects): ≤ 6 days | Elevations in total bilirubin (healthy human subjects; any subject in the trial): no observations of elevations | Well tolerated single doses (healthy human subjects; healthy human subjects): up to 1247 mg | Well tolerated multiple doses (healthy human subjects; healthy human subjects, up to 10 days): up to 997 mg | Aspartate aminotransferase elevation in the same subject (healthy human subjects; multiple dose study): 1.9 times the upper limit of normal | Subjects with ALT above the upper limit of normal (healthy human subjects; multiple dose study, 600 mg group): 1 subject | Subjects with ALT above the upper limit of normal (healthy human subjects; multiple dose study, 1000 mg group): 3 subjects | Subjects with total testosterone below 1.73 nmol/L (castrate range) (healthy human subjects; multiple doses study): no subject | % subjects castrated [3, 4]: 0% ^ | BSAP % change from baseline to final observation [3, 4]: −18.7 ± 18.8% | FSH % change from baseline to final observation [3, 4]: −48.4 ± 53.9% | Free testosterone % change from baseline to final observation [3, 4]: −32.9 ± 43.2% | Osteocalcin % change from baseline to final observation [3, 4]: −32.8 ± 11.1% | SHBG % change from baseline to final observation [3, 4]: +363 ± 139% | Total testosterone % change from baseline to final observation [3, 4]: +22.1 ± 51.9% | serum PSA % change from baseline to final observation [3, 4]: −43.8 ± 21.1% | BSAP change ([3]; 1000 mg): 6.0 ± 29% | FSH change ([3]; 1000 mg): −91 ± 5.2% | Free testosterone change ([3]; 1000 mg): −98.2 ± 0.146% | Osteocalcin change ([3]; 1000 mg): −20 ± 15% | SHBG change ([3]; 1000 mg): 471 ± 102% | Total testosterone change ([3]; 1000 mg): −94.7 ± 0.228% | serum PSA change ([3]; 1000 mg): −52 ± 28% | % subjects castrated [3, 5]: 75% ^ | BSAP % change from baseline to final observation [3, 5]: −5.97 ± 31.6% | FSH % change from baseline to final observation [3, 5]: −78.4 ± 29.4% | Free testosterone % change from baseline to final observation [3, 5]: −86.4 ± 26.4% | Osteocalcin % change from baseline to final observation [3, 5]: −21.4 ± 14.4% | SHBG % change from baseline to final observation [3, 5]: +446 ± 130% | Total testosterone % change from baseline to final observation [3, 5]: −63.0 ± 59.9% | serum PSA % change from baseline to final observation [3, 5]: −42.8 ± 30.2% | Subjects that reached castrate levels of total testosterone ([3]; 1500 mg dose group, by Day 28, sufficiently compliant subjects): 90% | BSAP change ([3]; 1500 mg): −19 ± 21% | FSH change ([3]; 1500 mg): −88 ± 4.8% | Free testosterone change ([3]; 1500 mg): −97.7 ± 0.155% | Osteocalcin change ([3]; 1500 mg): −23 ± 17% | SHBG change ([3]; 1500 mg): 524 ± 212% | Total testosterone change ([3]; 1500 mg): −92.8 ± 0.65% | serum PSA change ([3]; 1500 mg): −43 ± 24% | % subjects castrated [3, 6]: 92% ^ | BSAP % change from baseline to final observation [3, 6]: −21.1 ± 17.0% | FSH % change from baseline to final observation [3, 6]: −89.7 ± 5.07% | Free testosterone % change from baseline to final observation [3, 6]: −97.5 ± 1.64% | Osteocalcin % change from baseline to final observation [3, 6]: −18.2 ± 18.7% | SHBG % change from baseline to final observation [3, 6]: +591 ± 258% | Total testosterone % change from baseline to final observation [3, 6]: −90.6 ± 9.67% | serum PSA % change from baseline to final observation [3, 6]: −48.1 ± 17.0% | SHBG increase over baseline ([3]; each dose arm (600, 1000, 1500 mg), Study 1): 300-600%
